This note sets out measurements from US20240335466A1, “NICOTINAMIDE MONONUCLEOTIDE DERIVATIVES FOR USE IN THE TREATMENT OF SAPHO SYNDROME” (NUVAMID SA, priority 2021, published 2024).

Molecules are shown by their SMILES.

Assay [1] relates to patient suffering from SAPHO syndrome. In words: Case report: oral NMN in a patient with SAPHO syndrome, BASDAI self-assessment questionnaire. Type of assay: in vivo, human. To be noted: one patient. The method, then:
(§1) This case report investigated the effects of nicotinamide mononucleotide derivatives according to the invention in a patient suffering from SAPHO syndrome. Especially, the effects of nicotinamide mononucleotide (NMN), i.e. compound 001, were investigated. NMN was orally administered at a dose of 500 mg/day, once a day in the morning, for 12 months. The patient reported that SAPHO syndrome manifested with osteitis in the upper right chest area managed with NSAIDs. At the start of the treatment, the patient reported strong pain and swelling (7.5/10) in joints affected by the disease. The patient also suffered from fatigue. In the absence of SAPHO syndrome specific questionnaire, efficacy of the treatment was assessed using self-assessment questionnaires: the Bath Ankylosing Spondylitis Disease Activity Index (BASDAI) which is the gold standard for measuring and following disease activity in Ankylosing Spondylitis, and the Bath Ankylosing Spondylitis Functional Index (BAFSI) for measuring and monitoring functional ability in patients with ankylosing spondylitis. […] Evaluation was performed before start of the treatment, and after 12 months of treatment.

Assay [2] shares this test system. Description: Case report: oral NMN in a patient with SAPHO syndrome, BASFI self-assessment questionnaire. To be noted: one patient. It is filed as in vivo, human. The method, then: as §1

As to `NC(=O)c1ccc[n+]([C@@H]2O[C@H](COP(=O)([O-])O)[C@@H](O)[C@H]2O)c1` [NMN, nicotinamide mononucleotide], the “BASDAI score after NMN” value in assay [1] (500 mg/day oral once a day, after 12 months, before NMN: 5.4, scores of 4 or greater suggest suboptimal control of disease) was determined as 3. In assay [1] (500 mg/day oral, 12 months, before: pain and swelling 7.5/10, fatigue 6.5/10, discomfort 6.5/10), the “effect on fatigue, pain and swelling of the joints and discomfort (BASDAI items)” value is “significantly improved fatigue, pain and swelling of the joints and discomfort”. Besides, in assay [2] (500 mg/day oral once a day, after 12 months, before NMN: 2.4), the “BASFI score after NMN” value was found to be 2.1. For the same compound, the “BASFI item: physically demanding activities, score” value in assay [2] (500 mg/day oral, after one year treatment, before treatment 7/10) is given as 4.5 /10.
